Reference: PubChem BioAssay (NCI)
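A five-concentration, 48-hour dose response in 96-well plates underlies each endpoint, interpolated linearly between surrounding concentrations. TGI is the concentration that stops growth completely.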 Where a SMILES comes first, the peptide text is derived from it. The star is where a group is joined. Cbz = O=C(OCc1ccccc1)*; Boc = CC(C)(C)OC(=O)*; OSu = O=C1CCC(=O)N1O*; Bn = c1ccc(C*)cc1

How the values were obtained:
Assay in all cases: NCI tumour cell line growth inhibition, 48 h
[1] = test system: UO-31 renal
[2] = test system: IGROV1 ovarian
[3] = test system: SR leukemia
[4] = test system: SK-MEL-5 melanoma
[5] = test system: MALME-3M melanoma
[6] = test system: SF-268 CNS
[7] = test system: U251 CNS
[8] = test system: M14 melanoma
[9] = test system: UACC-62 melanoma
[10] = test system: EKVX NSCLC
[11] = test system: HOP-92 NSCLC
[12] = test system: NCI/ADR-RES ovarian
[13] = test system: SNB-75 CNS
[14] = test system: SK-MEL-28 melanoma
[15] = test system: MDA-MB-435
[16] = test system: SK-OV-3 ovarian
[17] = test system: A549 NSCLC
[18] = test system: NCI-H522 lung
[19] = test system: UACC-257 melanoma
[20] = test system: CCRF-CEM leukemia
[21] = test system: MOLT-4 leukemia
[22] = test system: MCF7 breast
[23] = test system: SNB-19 CNS
[24] = test system: SF-295 CNS
[25] = test system: OVCAR-8 ovarian
[26] = test system: HT29 colon
[27] = test system: T-47D breast
[28] = test system: COLO 205 colon
[29] = test system: NCI-H23 lung
[30] = test system: SK-MEL-2 melanoma
[31] = test system: OVCAR-4 ovarian
[32] = test system: 786-0 renal
[33] = test system: CAKI-1 renal
[34] = test system: RPMI-8226 leukemia
[35] = test system: NCI-H460 lung
[36] = test system: HCT-116 colon
[37] = test system: BT-549 breast
[38] = test system: MDA-N
[39] = test system: HCT-15 colon
[40] = test system: OVCAR-5 ovarian
[41] = test system: TK-10 renal
[42] = test system: KM12 colon
[43] = test system: HOP-62 NSCLC
[44] = test system: ACHN renal
[45] = test system: RXF 393 renal
[46] = test system: HS 578T breast
[47] = test system: DU-145 prostate
[48] = test system: MDA-MB-231 breast
[49] = test system: PC-3 prostate
[50] = test system: SF-539 CNS
[51] = test system: HL-60(TB) leukemia
[52] = test system: K-562 leukemia
[53] = test system: SW-620 colon
[54] = test system: OVCAR-3 ovarian
[55] = test system: LOX IMVI melanoma
[56] = test system: NCI-H226 lung
[57] = test system: HCC-2998 colon
[58] = test system: SN12C renal
[59] = test system: A498 renal

## CC(C)(C)OC(=O)NC(Cc1ccc(OCc2ccccc2)cc1)C(=O)NC(CCCCNC(=O)OCc1ccccc1)C(=O)NC(CCCCNC(=O)OCc1ccccc1)C(=O)ON1C(=O)CCC1=O (centres undefined) (Boc-Tyr(Bn)-Lys(Cbz)-Lys(Cbz)-OSu; configuration not given here)
[1]
  TGI: > 100 µM
[2]
  TGI: > 100 µM
[3]
  TGI: > 100 µM
[4]
  TGI: > 100 µM
[5]
  TGI: > 100 µM
[6]
  TGI: > 100 µM
[7]
  TGI: 31.8 µM
[8]
  TGI: > 100 µM
[9]
  TGI: 34.6 µM
[10]
  TGI: > 100 µM
[11]
  TGI: > 100 µM
[12]
  TGI: > 100 µM
[13]
  TGI: > 100 µM
[14]
  TGI: > 100 µM
[15]
  TGI: > 100 µM
[16]
  TGI: > 100 µM
[17]
  TGI: > 100 µM
[18]
  TGI: 39.7 µM
[19]
  TGI: > 100 µM
[20]
  TGI: > 100 µM
[21]
  TGI: > 100 µM
[22]
  TGI: 39.3 µM
[23]
  TGI: 30.7 µM
[24]
  TGI: 72.1 µM
[25]
  TGI: 94.8 µM
[26]
  TGI: > 100 µM
[27]
  TGI: > 100 µM
[28]
  TGI: > 100 µM
[29]
  TGI: > 100 µM
[30]
  TGI: 99.4 µM
[31]
  TGI: > 100 µM
[32]
  TGI: 37.1 µM
[33]
  TGI: > 100 µM
[34]
  TGI: > 100 µM
[35]
  TGI: > 100 µM
[36]
  TGI: 58.7 µM
[37]
  TGI: 33.2 µM
[38]
  TGI: 45.4 µM
[39]
  TGI: > 100 µM
[40]
  TGI: > 100 µM
[41]
  TGI: > 100 µM
[42]
  TGI: > 100 µM
[43]
  TGI: > 100 µM
[44]
  TGI: > 100 µM
[45]
  TGI: > 100 µM
[46]
  TGI: 49 µM
[47]
  TGI: > 100 µM

## Clc1ccc(C2=NCON=C2c2ccc(Cl)cc2)cc1
[48]
  TGI: 43.7 µM
[1]
  TGI: 40.7 µM
[4]
  TGI: 30.3 µM
[5]
  TGI: 27.7 µM
[6]
  TGI: 57.7 µM
[49]
  TGI: 68.2 µM
[7]
  TGI: 40.1 µM
[9]
  TGI: 37.8 µM
[10]
  TGI: 45.3 µM
[11]
  TGI: 43.5 µM
[50]
  TGI: 35.5 µM
[12]
  TGI: 71.2 µM
[51]
  TGI: 30.9 µM
[13]
  TGI: 74.2 µM
[52]
  TGI: 55 µM
[16]
  TGI: 47.1 µM
[17]
  TGI: > 100 µM
[53]
  TGI: 50.1 µM
[19]
  TGI: 61.4 µM
[20]
  TGI: 53.1 µM
[21]
  TGI: 42.9 µM
[22]
  TGI: 85.6 µM
[23]
  TGI: > 100 µM
[24]
  TGI: 49.4 µM
[25]
  TGI: 88.7 µM
[26]
  TGI: 31.1 µM
[27]
  TGI: 22.8 µM
[28]
  TGI: 29.9 µM
[29]
  TGI: 44.3 µM
[30]
  TGI: 46.1 µM
[31]
  TGI: > 100 µM
[54]
  TGI: 46.6 µM
[32]
  TGI: 42.7 µM
[33]
  TGI: 97.8 µM
[34]
  TGI: 40.6 µM
[35]
  TGI: 40.6 µM
[55]
  TGI: 28.3 µM
[56]
  TGI: 32.7 µM
[57]
  TGI: 32.7 µM
[36]
  TGI: 31.3 µM
[37]
  TGI: 41.7 µM
[38]
  TGI: 56.5 µM
[39]
  TGI: 50.6 µM
[40]
  TGI: 90.7 µM
[41]
  TGI: 66.3 µM
[42]
  TGI: 39.6 µM
[58]
  TGI: 35.2 µM
[43]
  TGI: > 100 µM
[44]
  TGI: 54.9 µM
[45]
  TGI: 44.8 µM
[46]
  TGI: 36.2 µM
[47]
  TGI: > 100 µM

## CCOC(=O)C1CCC(=O)N1C(=O)c1ccc(Cl)cc1 (centres undefined)
[48]
  TGI: > 100 µM
[1]
  TGI: > 100 µM
[2]
  TGI: > 100 µM
[3]
  TGI: > 100 µM
[4]
  TGI: > 100 µM
[5]
  TGI: > 100 µM
[6]
  TGI: > 100 µM
[7]
  TGI: > 100 µM
[8]
  TGI: > 100 µM
[9]
  TGI: > 100 µM
[10]
  TGI: > 100 µM
[11]
  TGI: > 100 µM
[50]
  TGI: > 100 µM
[12]
  TGI: > 100 µM
[51]
  TGI: > 100 µM
[13]
  TGI: > 100 µM
[14]
  TGI: > 100 µM
[52]
  TGI: > 100 µM
[15]
  TGI: > 100 µM
[17]
  TGI: > 100 µM
[53]
  TGI: > 100 µM
[59]
  TGI: > 100 µM
[18]
  TGI: > 100 µM
[19]
  TGI: > 100 µM
[20]
  TGI: > 100 µM
[21]
  TGI: > 100 µM
[22]
  TGI: > 100 µM
[23]
  TGI: > 100 µM
[24]
  TGI: > 100 µM
[25]
  TGI: > 100 µM
[26]
  TGI: > 100 µM
[27]
  TGI: > 100 µM
[29]
  TGI: > 100 µM
[54]
  TGI: > 100 µM
[32]
  TGI: > 100 µM
[33]
  TGI: > 100 µM
[34]
  TGI: > 100 µM
[35]
  TGI: > 100 µM
[55]
  TGI: > 100 µM
[56]
  TGI: > 100 µM
[57]
  TGI: > 100 µM
[36]
  TGI: > 100 µM
[37]
  TGI: > 100 µM
[38]
  TGI: > 100 µM
[39]
  TGI: > 100 µM
[40]
  TGI: > 100 µM
[42]
  TGI: > 100 µM
[58]
  TGI: > 100 µM
[43]
  TGI: > 100 µM
[44]
  TGI: > 100 µM
[45]
  TGI: > 100 µM
[46]
  TGI: > 100 µM
[47]
  TGI: > 100 µM

## O=C(O)C1(C(O)c2ccccc2)SCCCS1 (centres undefined)
[48]
  TGI: > 10 µM
[1]
  TGI: > 10 µM
[2]
  TGI: > 10 µM
[3]
  TGI: > 10 µM
[4]
  TGI: > 10 µM
[5]
  TGI: > 10 µM
[6]
  TGI: > 10 µM
[49]
  TGI: > 10 µM
[7]
  TGI: > 10 µM
[8]
  TGI: > 10 µM
[9]
  TGI: > 10 µM
[10]
  TGI: > 10 µM
[11]
  TGI: > 10 µM
[50]
  TGI: > 10 µM
[51]
  TGI: > 10 µM
[13]
  TGI: > 10 µM
[14]
  TGI: > 10 µM
[52]
  TGI: > 10 µM
[15]
  TGI: > 10 µM
[16]
  TGI: > 10 µM
[17]
  TGI: > 10 µM
[53]
  TGI: > 10 µM
[59]
  TGI: > 10 µM
[19]
  TGI: > 10 µM
[20]
  TGI: > 10 µM
[21]
  TGI: > 10 µM
[22]
  TGI: > 10 µM
[23]
  TGI: > 10 µM
[24]
  TGI: > 10 µM
[25]
  TGI: > 10 µM
[26]
  TGI: > 10 µM
[27]
  TGI: > 10 µM
[29]
  TGI: > 10 µM
[30]
  TGI: > 10 µM
[54]
  TGI: > 10 µM
[32]
  TGI: > 10 µM
[35]
  TGI: > 10 µM
[55]
  TGI: > 10 µM
[56]
  TGI: > 10 µM
[36]
  TGI: > 10 µM
[37]
  TGI: > 10 µM
[38]
  TGI: > 10 µM
[39]
  TGI: > 10 µM
[40]
  TGI: > 10 µM
[41]
  TGI: > 10 µM
[42]
  TGI: > 10 µM
[58]
  TGI: > 10 µM
[43]
  TGI: > 10 µM
[44]
  TGI: > 10 µM
[45]
  TGI: > 10 µM
[46]
  TGI: > 10 µM
[47]
  TGI: > 10 µM
